Measurements as given in patent US8455534B2, “Estrogen receptor modulators and uses thereof” (Aragon Pharmaceuticals, Inc., priority 2010, dated 2013).
pIC50: −log10 of the molar value.

How the values were obtained:
MCF-7 cells = experiment: Breast Cancer Cell Viability Assay (MCF-7, CellTiter-Glo); assay type: cell-based; settings: 5 days' compound exposure; for pIC50: Homo sapiens, MCF7, 120 h
Protocol: MCF-7 cells were adjusted to a concentration of 20,000 cells per mL in RPMI containing 10% FBS and 20 mM HEPES. 16 microliters of the cell suspension (320 cells) was added to each well of a 384 well plate, and the cells were incubated overnight to allow the cells to adhere. The following day an eleven point, serial semilog dilution of each compound was added to the cells in 16 μL at a final concentration ranging from 0.3-0.000003 μM. After 5 days' compound exposure, 16 μL of CellTiter-GLo (Promega, Madison Wis.) was added to the cells the relative luminescence units (RLUs) of each well was determined CellTiter-Glo added to 32 μL of medium without cells was used to obtain a background value. The Percent viability of each sample was determined as follows: (RLU sample-RLU background/RLU untreated cells-RLU background)×100=% viability.

ER-α = biological target: T1, ER-α (Homo sapiens, UniProt P03372); experiment: Breast Cancer Cell ER-α In Cell Western Assay (SP1); assay type: cell-based; settings: MCF-7 cells, SP1 antibody, 4 or 24 hr post compound addition; for Emax: MCF7, read-out: ER-α In Cell Western Assay (SP1) Max Response; for DC50: read-out: ER-α In Cell Western Assay (SP1) IC50
T1 sequence (P03372 1-595): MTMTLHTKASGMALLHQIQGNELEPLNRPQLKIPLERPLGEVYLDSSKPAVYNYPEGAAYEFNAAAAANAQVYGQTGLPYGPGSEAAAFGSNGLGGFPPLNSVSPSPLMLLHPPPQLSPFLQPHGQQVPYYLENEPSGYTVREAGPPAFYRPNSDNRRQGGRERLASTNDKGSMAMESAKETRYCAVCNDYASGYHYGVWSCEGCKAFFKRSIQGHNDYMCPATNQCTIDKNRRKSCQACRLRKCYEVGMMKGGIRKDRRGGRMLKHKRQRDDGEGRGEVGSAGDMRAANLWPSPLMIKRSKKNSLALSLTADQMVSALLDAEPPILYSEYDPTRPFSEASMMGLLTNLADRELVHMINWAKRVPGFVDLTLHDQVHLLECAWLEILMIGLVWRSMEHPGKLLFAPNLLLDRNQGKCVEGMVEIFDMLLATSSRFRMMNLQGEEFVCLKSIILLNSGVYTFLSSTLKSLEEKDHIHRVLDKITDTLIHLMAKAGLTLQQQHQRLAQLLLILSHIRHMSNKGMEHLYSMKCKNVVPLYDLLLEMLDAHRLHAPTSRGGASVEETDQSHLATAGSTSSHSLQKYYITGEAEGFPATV
Protocol: MCF-7 cells were adjusted to a concentration of 200,000 cells per mL in RPMI containing 10% charcoal-stripped FBS and 20 mM HEPES. 16 microliters of the cell suspension (3200 cells) was added to each well of a poly-D-lysine 384 well plate, and the cells were incubated overnight to allow the cells to adhere. The following day an eleven point, serial semilog dilution of each compound was added to the cells in 16 μL at a final concentration ranging from 0.3-0.000003 μM. At 4 or 24 hr post compound addition, the cells were fixed (10% formalin in PBS) for 20 minutes. Cells were permeablized in PBS 0.1% Triton and blocked with LICOR blocking buffer (50 μL1/well, 90′). The wells were then incubated overnight at 4° C. with SP1 rabbit monoclonal Ab (Thermo Scientific) diluted 1:1000 in LICOR blocking buffer/0.1% Tween-20. Wells which were treated with blocking buffer with Tween but no antibody were used as a background control. Wells were washed with 0.1% Tween-20/PBS and then incubated in goat anti-rabbit IRDye™ 800CW (LICOR Inc.; 1:1000) and DRAQ5 DNA dye (1:2000 for 2 mM stock) diluted in LICOR blocking buffer containing 0.1% Tween-20 and 0.01% SDS for 60 minutes. Cells were washed (50 μl/well, 5′ each) in 0.1% Tween-20/PBS. Plates were scanned on a LICOR Odyssey infrared imaging system. Integrated intensities in the 800 nm channel and 700 nm channel were measured to determine levels of ER and DNA respectively. Percent ER levels were determined as follows: (Integrated intensity 800 nm sample/integrated intensity 700 nm sample)/(Integrated intensity 800 nm untreated cells/integrated intensity 700 nm untreated cells)×100=% ER levels.

Compound	pIC50 (MCF-7 cells)	Emax (ER-α)	DC50 (ER-α)	MCF7 Viability Assay Max Response (MCF-7 cells)
O=C(O)/C=C/c1ccc(/C(=C(\c2ccc(F)cc2Cl)C(F)F)c2ccc3[nH]ncc3c2)cc1 [Compound 74, (E)-3-(4-((Z)-2-(2-Chloro-4-fluorophenyl)-3,3-difluoro-1-(1H-indazol-5-yl)prop-1-en-1-yl)phenyl)acrylic acid]	≥ 7.00	≥ 40%	≤ 100 nM	++ (++ = a single % value ≧ 40%)
CC(C)C/C(=C(/c1ccc(/C=C/C(=O)O)cc1)c1ccc2[nH]ncc2c1)c1ccccc1 [Compound 51, (E)-3-(4-((E)-1-(1H-Indazol-5-yl)-4-methyl-2-phenylpent-1-en-1-yl)phenyl)acrylic acid]	≥ 7.00	≥ 40%	≤ 100 nM	++ (++ = a single % value ≧ 40%)
CC/C(=C(/c1ccc(/C=C/C(=O)O)cc1)c1ccc2[nH]ncc2c1)c1cccc(F)c1Cl [Compound 23, (E)-3-(4-((E)-2-(2-Chloro-3-fluorophenyl)-1-(1H-indazol-5-yl)but-1-en-1-yl)phenyl)acrylic acid]	≥ 7.00	≥ 40%	≤ 100 nM	++ (++ = a single % value ≧ 40%)
O=C(O)/C=C/c1ccc(/C(=C(\c2ccccc2)C2CCCC2)c2ccc3[nH]ncc3c2)cc1 [Compound 53, (E)-3-(4-((E)-2-Cyclopentyl-1-(1H-indazol-5-yl)-2-phenylvinyl)phenyl)acrylic acid]	≥ 7.00	≥ 40%	≤ 100 nM	++ (++ = a single % value ≧ 40%)
CC/C(=C(/c1ccc(/C=C/C(=O)O)cc1)c1ccc2[nH]ncc2c1Cl)c1ccc(F)cc1Cl [Compound 73, (E)-3-(4-((E)-1-(4-Chloro-1H-indazol-5-yl)-2-(2-chloro-4-fluorophenyl)but-1-en-1-yl)phenyl)acrylic acid]	≥ 7.00	≥ 40%	≤ 100 nM	++ (++ = a single % value ≧ 40%)
CC/C(=C(/c1ccc(/C=C/C(=O)O)c(Cl)c1)c1ccc2[nH]ncc2c1)c1ccccc1 [Compound 102, (E)-3-(4-((Z)-1-(1H-Indazol-5-yl)-2-phenylbut-1-en-1-yl)-2-chlorophenyl)acrylic acid]	≥ 7.00	≥ 40%	≤ 100 nM	++ (++ = a single % value ≧ 40%)
CC/C(=C(/c1ccc(/C=C/C(=O)O)cc1)c1ccc2[nH]ncc2c1F)c1ccc(Cl)cc1C(F)(F)F [Compound 119, (E)-3-(4-((E)-2-(4-Chloro-2-(trifluoromethyl)phenyl)-1-(4-fluoro-1H-indazol-5-yl)but-1-en-1-yl)phenyl)acrylic acid]	≥ 7.00	≥ 40%	≤ 100 nM	++ (++ = a single % value ≧ 40%)
[2H]C([2H])([2H])C([2H])([2H])/C(=C(/c1ccc(/C=C/C(=O)O)cc1)c1ccc2[nH]ncc2c1)c1ccc(F)cc1Cl [Compound 136, (E)-3-(4-((E)-2-(2-Chloro-4-fluorophenyl)-3,3,4,4,4-pentadeutero-1-(1H-indazol-5-yl)but-1-en-1-yl)phenyl)acrylic acid]	≥ 7.00			++ (++ = a single % value ≧ 40%)
CC/C(=C(/c1ccc(/C=C/C(=O)O)cc1)c1ccc2[nH]ncc2c1)c1ccc(F)cc1Cl [Compound 111, (E)-3-(4-((E)-2-(2-Chloro-4-fluorophenyl)-1-(1H-indazol-5-yl)but-1-en-1-yl)phenyl)acrylic acid]	≥ 7.00			++ (++ = a single % value ≧ 40%)

Second part, led by results:

pIC50 (MCF-7 cells)	Emax (ER-α)	DC50 (ER-α)	Compound	MCF7 Viability Assay Max Response (MCF-7 cells)
≥ 7.00	≥ 40%	≤ 100 nM	Cc1cc(Cl)ccc1/C(=C(\c1ccc(/C=C/C(=O)O)cc1)c1ccc2[nH]ncc2c1)C1CC1 [Compound 126, (E)-3-(4-((E)-2-(4-Chloro-2-methylphenyl)-2-cyclopropyl-1-(1H-indazol-5-yl)vinyl)phenyl)acrylic acid]	++ (++ = a single % value ≧ 40%)
≥ 7.00	≥ 40%	≤ 100 nM	CC/C(=C(/c1ccc(/C=C/C(=O)O)cc1)c1ccc2[nH]nc(F)c2c1)c1ccccc1 [Compound 86, (E)-3-(4-((E)-1-(3-Fluoro-1H-indazol-5-yl)-2-phenylbut-1-en-1-yl)phenyl)acrylic acid]	++ (++ = a single % value ≧ 40%)
≥ 7.00	≥ 40%	≤ 100 nM	CC/C(=C(/c1ccc(/C=C/C(=O)O)cc1)c1ccc2[nH]ncc2c1)c1cccc(O)c1 [Compound 93, (E)-3-(4-((E)-2-(3-Hydroxyphenyl)-1-(1H-indazol-5-yl)but-1-en-1-yl)phenyl)acrylic acid]	++ (++ = a single % value ≧ 40%)
< 7.00	≥ 40%	> 100 nM	CC/C(=C(/c1ccc(/C=C/C(=O)O)cc1)c1ccc2[nH]nc(C)c2c1)c1ccccc1 [Compound 39, (E)-3-(4-((E)-1-(3-Methyl-1H-indazol-5-yl)-2-phenylbut-1-en-1-yl)phenyl)acrylic acid]	++ (++ = a single % value ≧ 40%)
≥ 7.00	≥ 40%	≤ 100 nM	CC/C(=C(/c1ccc(/C=C/C(=O)O)cc1)c1ccc2[nH]ncc2c1)c1ccc(CO)cc1 [Compound 7, (E)-3-(4-((E)-2-(4-(Hydroxymethyl)phenyl)-1-(1H-indazol-5-yl)but-1-en-1-yl)phenyl)acrylic acid]	++ (++ = a single % value ≧ 40%)
≥ 7.00	≥ 40%	≤ 100 nM	CC/C(=C(/c1ccc(/C=C/C(=O)O)cc1)c1ccc2[nH]ncc2c1)c1cccc(OC)c1 [Compound 5, (E)-3-(4-((E)-1-(1H-indazol-5-yl)-2-(3-methoxyphenyl)but-1-en-1-yl)phenyl)acrylic acid]	++ (++ = a single % value ≧ 40%)
≥ 7.00	≥ 40%		CC/C(=C(/c1ccc(/C=C/C(=O)O)cc1)c1ccc2[nH]ncc2c1)c1ccccc1S(C)(=O)=O [Compound 98, (E)-3-(4-((E)-1-(1H-Indazol-5-yl)-2-(2-(methylsulfonyl)phenyl)but-1-en-1-yl)phenyl)acrylic acid]	++ (++ = a single % value ≧ 40%)
≥ 7.00	≥ 40%	≤ 100 nM	COC/C(=C(/c1ccc(/C=C/C(=O)O)cc1)c1ccc2[nH]ncc2c1)c1ccccc1 [Compound 48, (E)-3-(4-((Z)-1-(1H-Indazol-5-yl)-3-methoxy-2-phenylprop-1-en-1-yl)phenyl)acrylic acid]	++ (++ = a single % value ≧ 40%)
≥ 7.00			CCOC(=O)/C=C/c1ccc(/C(=C(/CC)c2ccc(OC)cc2)c2ccc3[nH]ncc3c2)cc1 [Compound 92, (E)-Ethyl 3-(4-((E)-1-(1H-Indazol-5-yl)-2-(4-methoxyphenyl)but-1-en-1-yl)phenyl)acrylate]	+ (+ = a single % value < 40%)
≥ 7.00			CCOC(=O)/C=C/c1ccc(/C(=C(/CC)c2ccccc2OC)c2ccc3[nH]ncc3c2)cc1 [Compound 91, (E)-ethyl 3-(4-((E)-1-(1H-indazol-5-yl)-2-(2-methoxyphenyl)but-1-en-1-yl)phenyl)acrylate]	+ (+ = a single % value < 40%)
